Results reported in paper PMC8659069, “Optimization of 4-Anilinoquinolines as Dengue Virus Inhibitors” (Molecules, 2021).
Like-named read-outs stand apart in the source and are kept apart here.

Experiments:
[1] = system: DENV; design: method as in PMID 28240606, PMID 22448770, PMID 26039671, PMID 19223625, PMID 32631507; conditions: serotype 2; erlotinib in Huh7 (Figure 2); ref [14],[29],[30],[31],[32],[33]; read-out: DENV EC50 (previously reported); cited from earlier work
[2] = system: DENV2; assay: microbe, parasite or virus in culture; format: cell-based, dengue virus (DENV2, New Guinea C strain); conditions: for EC50: read-out: DENV Inhibition EC50; for EC90: read-out: DENV Inhibition EC90
[3] = system: VEEV (TC-83); assay: microbe, parasite or virus in culture; format: cell-based, Venezuelan Equine Encephalitis virus; conditions: for EC50: read-out: VEEV Inhibition EC50; for EC90: read-out: VEEV Inhibition EC90
[4] = in vitro; conditions: human
[5] = in vitro; conditions: human; remark: listed apart in the source
[6] = in vitro; conditions: African green monkey
[7] = Dengue virus, DENV2, Huh-7, 48 h
[8] = Venezuelan equine encephalitis virus, U-87 MG, 18 h

Structure (SMILES)	EC50 [2, 7] [µM]	CC50 [4] [µM]	other results
CC(C)(C)Oc1cccc2nc(N)nc(N)c12 [Compound 1]			EC50 [1]: 0.0028 µM
Clc1ccc(-c2ccc(-c3nc(NCc4cccnc4)nc4ccccc34)s2)cc1 [Compound 2]			EC50 [1]: 0.07 µM
COc1cc(Nc2c(C#N)cnc3ccc(I)cc23)cc(OC)c1OC [Compound 3]			EC50 [1]: 0.079 µM
COc1cccc(Nc2ccnc3ccc(C(F)(F)F)cc23)c1 [Compound 4]	0.82	> 10	EC90 [2, 7]: 1.5 µM; EC50 [3, 8]: > 10 µM; EC90 [3, 8]: > 10 µM; CC50 [5]: > 10 µM; CC50 [6]: > 10 µM
Oc1cccc(Nc2ccnc3ccc(C(F)(F)F)cc23)c1 [Compound 5]	2.7	> 10	
O=[N+]([O-])c1cccc(Nc2ccnc3ccc(C(F)(F)F)cc23)c1 [Compound 6]	> 10	> 10	
Nc1cccc(Nc2ccnc3ccc(C(F)(F)F)cc23)c1 [Compound 7]	5.9	> 10	
CNc1cccc(Nc2ccnc3ccc(C(F)(F)F)cc23)c1 [Compound 8]	8.9	> 10	
CN(C)c1cccc(Nc2ccnc3ccc(C(F)(F)F)cc23)c1 [Compound 9]	2.3	> 10	
OCc1cccc(Nc2ccnc3ccc(C(F)(F)F)cc23)c1 [Compound 10]	6.6	> 10	
COc1cccc(Nc2ccnc3ccc(Br)cc23)c1 [Compound 11]	0.84	> 10	
Oc1cccc(Nc2ccnc3ccc(Br)cc23)c1 [Compound 12, 3-((6-bromoquinolin-4-yl)amino)phenol]	0.63	> 10	EC90 [2, 7]: 3.2 µM; EC50 [3, 8]: 9.9 µM; EC90 [3, 8]: > 10 µM; melting point: > 300 °C; CC50 [5]: > 10 µM; CC50 [6]: > 10 µM
COc1cccc(Nc2ccnc3ccccc23)c1 [Compound 13]	2.5	> 10	
Oc1cccc(Nc2ccnc3ccccc23)c1 [Compound 14]	> 10	> 10	
COc1cccc(Nc2ccnc3ccc(OC)cc23)c1 [Compound 15]	4.4	> 10	
COc1ccc2nccc(Nc3cccc(O)c3)c2c1 [Compound 16]	> 10	> 10	
COc1cccc(Nc2ccnc3ccc(S(C)(=O)=O)cc23)c1 [Compound 17]	> 10	> 10	
CS(=O)(=O)c1ccc2nccc(Nc3cccc(O)c3)c2c1 [Compound 18]	> 10	> 10	
O=[N+]([O-])c1cccc(Nc2ccnc3ccc(Br)cc23)c1 [Compound 19]	> 10	> 10	

Structure (SMILES)	EC50 [2, 7] [µM]	CC50 [4] [µM]	other results
Nc1cccc(Nc2ccnc3ccc(Br)cc23)c1 [Compound 20]	> 10	> 10	
CNc1cccc(Nc2ccnc3ccc(Br)cc23)c1 [Compound 21, N^1-(6-bromoquinolin-4-yl)-N^3-methylbenzene-1,3-diamine]	0.24		selectivity index window (CC50/EC50, DENV, Huh7) [2]: 22 fold; EC90 [2, 7]: 0.69 µM; reduction in potency against VEEV relative to DENV [3]: 4-8 fold; EC50 [3, 8]: 1.03 µM; EC90 [3, 8]: 10.7 µM; EC50 [3]: 1 µM; EC90 [3]: > 10 µM; CC50 [6]: > 10 µM
CN(C)c1cccc(Nc2ccnc3ccc(Br)cc23)c1 [Compound 22]	> 10	> 10	
OCc1cccc(Nc2ccnc3ccc(Br)cc23)c1 [Compound 23]	3.7	> 10	
OCc1ccccc1Nc1ccnc2ccc(Br)cc12 [Compound 24]	7.1	> 10	
FS(F)(F)(F)(F)c1cccc(Nc2ccnc3ccc(Br)cc23)c1 [Compound 25]	1.5	> 10	
CC(C)(C)Oc1cccc(Nc2ccnc3ccc(Br)cc23)c1 [Compound 26]	2.3	9.2	
CC(C)(C)c1cccc(Nc2ccnc3ccc(Br)cc23)c1 [Compound 27]	0.94	6	
Brc1ccc2nccc(Nc3ccc4c(c3)OCO4)c2c1 [Compound 28]	1.7	8.6	
Brc1ccc2nccc(Nc3ccc4c(c3)COC4)c2c1 [Compound 29]	> 10	> 10	
Brc1ccc2nccc(Nc3cccc4c3OCO4)c2c1 [Compound 30]	> 10	> 10	
Brc1ccc2nccc(Nc3cccc4c3COC4)c2c1 [Compound 31]	> 10	> 10	
Fc1ccc2c(c1Nc1ccnc3ccc(Br)cc13)OCO2 [Compound 32]	1.9		CC50 at 48 h [4]: > 10 µM
COc1cccc(Nc2ccnc3ccc(Br)cc23)c1OC [Compound 33]	7.8		CC50 at 48 h [4]: > 10 µM
FC1(F)Oc2cccc(Nc3ccnc4ccc(Br)cc34)c2O1 [Compound 34]	7.1	> 10	
Brc1ccc2nccc(Nc3cccc4c3CCO4)c2c1 [Compound 35]	0.95	> 10	
Brc1ccc2nccc(Nc3cccc4c3OCC4)c2c1 [Compound 36]	5.7		CC50 at 48 h [4]: > 10 µM
Brc1ccc2nccc(Nc3cccc4cnoc34)c2c1 [Compound 39]	> 10		CC50 at 48 h [4]: > 10 µM
Brc1ccc2nccc(Nc3cccc4oncc34)c2c1 [Compound 40]	> 10		CC50 at 48 h [4]: > 10 µM

Structure (SMILES)	EC50 [2, 7] [µM]	CC50 [4] [µM]	other results
Brc1ccc2nccc(Nc3cccc4ncoc34)c2c1 [Compound 41]	3.2	> 10	
Brc1ccc2nccc(Nc3cccc4scnc34)c2c1 [Compound 42]	> 10	> 10	
Brc1ccc2nccc(Nc3cccc4sccc34)c2c1 [Compound 43]	2.9	> 10	
Brc1ccc2nccc(Nc3cccc4nonc34)c2c1 [Compound 44]	9.2		CC50 at 48 h [4]: > 10 µM
Brc1ccc2nccc(Nc3cccc4nsnc34)c2c1 [Compound 45]	5.8		CC50 at 48 h [4]: > 10 µM
Cn1nnc2c(Nc3ccnc4ccc(Br)cc34)cccc21 [Compound 46]	~5		EC50 [2]: 5.5 µM; CC50 at 48 h [4]: > 10 µM
Cn1ncc2c(Nc3ccnc4ccc(Br)cc34)cccc21 [Compound 47]	~5		EC50 [2]: 5.4 µM; CC50 at 48 h [4]: > 10 µM
Brc1ccc2nccc(Nc3cccc4[nH]ncc34)c2c1 [Compound 48]	2.1		CC50 at 48 h [4]: > 10 µM
Brc1ccc2nccc(Nc3ccc4cn[nH]c4c3)c2c1 [Compound 49]	1.8	> 10	
Fc1cc2cn[nH]c2cc1Nc1ccnc2ccc(Br)cc12 [Compound 50, 6-bromo-N-(5-fluoro-1H-indazol-6-yl)quinolin-4-amine]	0.69	> 10	EC90 [2, 7]: 3.98 µM; EC90 [2]: 4 µM; reduction in potency against VEEV relative to DENV [3]: 4-8 fold; EC50 [3, 8]: 2.3 µM; EC90 [3, 8]: 9.6 µM; CC50 [5]: > 10 µM; CC50 [6]: > 10 µM
Brc1ccc2nccc(Nc3ccc4[nH]ncc4c3)c2c1 [Compound 51]	1.2		CC50 at 48 h [4]: > 10 µM
O=C1NCc2ccc(Nc3ccnc4ccc(Br)cc34)cc21 [Compound 52, 6-((6-bromoquinolin-4-yl)amino)isoindolin-1-one]	0.64		EC90 [2, 7]: 1.51 µM; EC90 [2]: 1.5 µM; reduction in potency against VEEV relative to DENV [3]: 4-8 fold; EC50 [3, 8]: 3.6 µM; EC90 [3, 8]: > 10 µM; CC50 at 48 h [4]: > 10 µM; CC50 [5]: > 10 µM; CC50 [6]: > 10 µM
O=c1[nH]c2ccc(Nc3ccnc4ccc(Br)cc34)cc2[nH]1 [Compound 53]	> 10		CC50 at 48 h [4]: > 10 µM
O=c1[nH]c2cc(Nc3ccnc4ccc(Br)cc34)ccc2o1 [Compound 54]	> 10	> 10	
Cn1c(=O)[nH]c2cc(Nc3ccnc4ccc(Br)cc34)ccc21 [Compound 55]	7.1		CC50 at 48 h [4]: > 10 µM
O=S1(=O)Cc2ccc(Nc3ccnc4ccc(Br)cc34)cc2C1 [Compound 56]	6.3		CC50 at 48 h [4]: > 10 µM
C#Cc1cccc(Nc2ncnc3cc(OCCOC)c(OCCOC)cc23)c1 [Erlotinib, erlotinib]			EC50 [1]: 6.5 µM
CCN(CC)CCNC(=O)c1c(C)[nH]c(/C=C2\C(=O)Nc3ccc(F)cc32)c1C [Sunitinib, sunitinib, reference compound]	1.1	> 10	EC90 [2, 7]: > 10 µM; EC50 [3, 8]: 4.4 µM; EC90 [3, 8]: > 10 µM; CC50 [5]: > 10 µM; CC50 [6]: > 10 µM
